Data: publication PMC10786919, “Design-rules for stapled peptides with in vivo activity and their application to Mdm2/X antagonists” (Nature Communications, 2024)
pEC50: −log10 of the molar value. Read-outs that look alike come from different tables or passages of the source. Starred links: 1 amine or outer side, 2 acyl side, 3 side chain; linkers in the order of their positions; H or OH if unused. Positions of bridges follow the written chain, without caps; N, C: chain ends. Non-standard residues stand in square brackets, D forms with d. Residues, ends and D or L forms follow the SMILES beside them. dR8(desαMe) = O=C([C@@H](CCCCCCC=[*:3])N[*:1])[*:2]; Nle(6-ylidene) = O=C([C@H](CCCC=[*:3])N[*:1])[*:2]; 2Nal = N[C@@H](Cc1ccc2ccccc2c1)C(=O)O; tBuAla = CC(C)(C)C[C@H](N)C(=O)O; R8 = C=CCCCCCC[C@@](C)(N)C(=O)O; R5 = C=CCCC[C@@](C)(N)C(=O)O; S5 = C=CCCC[C@](C)(N)C(=O)O; Aib = CC(C)(N)C(=O)O; Ahx = NCCCCCC(=O)O

Assays:
Assay type in all cases: cell-based
[1] = system: p53 responsive β-lactamase reporter in HCT116 cells; assay: cells; settings: read-out: p53 reporter assay EC50
Description: HCT116 cells were stably transfected with a p53 responsive β-lactamase reporter and expanded in McCoy’s 5 A Medium with 10% fetal bovine serum (FBS), Blasticidin, and Penicillin/Streptomycin and then transferred to 1.5 ml freezing vials and stored under liquid nitrogen in growth media containing 5% DMSO. […] The cells were then seeded into a 384-well plate at a density of 8000 cells per well. […] The final working concentration of DMSO was 0.5%. β-lactamase activity was detected using the ToxBLAzer Dual Screen (Invitrogen), as per the manufacturer’s instructions. Measurements were made using the Envision multiplate reader (Perkin–Elmer). […] Measurements were taken a minimum of three times (biological replicates) and values are reported as geometric means of the replicates.

[2] = Lactate dehydrogenase (LDH) release assay; settings: LDH: Cytotoxicity assay EC50
Summary of the method: (§1)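 HCT116 cells stably carrying a p53-responsive β-lactamase reporter, seeded at 8000 cells/well, exposed to compound with 0.5% final DMSO. LDH release read with the CytoTox-ONE membrane integrity kit. Values are geometric means of at least three biological replicates.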

[3] = system: HCT116 cells; assay: Lactate dehydrogenase (LDH) release assay
Summary of the method: as §1

[4] = system: Jump-In T-REx CHO-K1 BLA cells; assay: cells; settings: for pEC50: read-out: TETCHO: Counterscreen EC50
Description: This assay was based on Jump-In™ T-REx™ CHO-K1 BLA cells containing a stably integrated β-lactamase under the control of an inducible cytomegalovirus (CMV) promoter. Cells were maintained in Dulbecco’s […] Eagle Medium (DMEM) with 10% fetal bovine serum (FBS), Blasticidin, and Penicillin/Streptomycin and then transferred to 1.5 ml freezing vials and stored under liquid nitrogen in growth media containing 5% DMSO. […] Cells were seeded into a 384-well plate at a density of 4000 cells per well. Peptides were then dispensed to each well using a liquid handler, ECHO 555 and incubated for 16 h. The final working concentration of DMSO was 0.5%. β-lactamase activity was detected using the ToxBLAzer Dual Screen (Invitrogen), as per the manufacturer’s instructions. Measurements were carried out using the Envision multiplate reader (Perkin–Elmer). Counterscreen activity was defined as the amount of β-lactamase activity induced by tetracycline. Measurements were taken a minimum of three times (biological replicates) and values are reported as geometric means of the replicates.

| SMILES | pEC50 ([1]; 0% FBS 4Hr) | pEC50 [2] | LDH: Cytotoxicity assay % Effect [3] | TETCHO: Counterscreen % Effect ([4]; 0% FBS 4Hr) | pEC50 ([4]; 0% FBS 4Hr) | pEC50 ([1]; 0% FBS 16Hr) | TETCHO: Counterscreen % Effect ([4]; 0% FBS 16Hr) |
| --- | --- | --- | --- | --- | --- | --- | --- |
| CC(=O)N[C@H](C(=O)N[C@@H](CO)C(=O)N[C@@H](Cc1ccc2ccccc2c1)C(=O)NC(C)(C)C(=O)N[C@@H](CCC(=O)O)C(=O)N[C@@H](Cc1ccc(O)cc1)C(=O)N[C@@H](Cc1c[nH]c2ccccc12)C(=O)N[C@@H](C)C(=O)N[C@@H](CC(C)C)C(=O)N[C@@H](CC(C)C)C(=O)NC(C)(C)C(N)=O)[C@@H](C)O [MP-161] (Ac-TS[2Nal][Aib]EYWALL[Aib]-NH2) | 5.18 | < 4.30 | -0.5798% | 26.11% | 4.71 |  |  |
| CC(=O)N[C@H](C(=O)N[C@@H](CO)C(=O)N[C@@H](Cc1ccccc1)C(=O)NC(C)(C)C(=O)N[C@@H](CCC(=O)O)C(=O)N[C@@H](Cc1ccc(O)cc1)C(=O)N[C@@H](Cc1c[nH]c2ccccc12)C(=O)N[C@@H](C)C(=O)N[C@@H](CC(C)C)C(=O)N[C@@H](CC(C)C)C(=O)NC(C)(C)C(=O)N[C@@H](CCC(=O)O)C(N)=O)[C@@H](C)O [MP-1176] | < 4.30 | < 4.30 | 12.95% | -0.7808% | < 4.30 |  |  |
| CC(=O)N[C@@H](CCCCN)C(=O)N[C@@H](CCCCN)C(=O)NCCCCCC(=O)N[C@H](C(=O)N[C@@H](CO)C(=O)N[C@@H](Cc1ccccc1)C(=O)N[C@]1(C)CCCCCCC=CCCC[C@@](C)(C(=O)N[C@@H](CCC(=O)O)C(=O)N[C@@H](CC(N)=O)C(=O)N[C@@H](Cc2ccc(O)cc2)C(N)=O)NC(=O)[C@H](CC(C)C)NC(=O)[C@H](CC(C)C)NC(=O)[C@H](C)NC(=O)[C@H](Cc2c[nH]c3ccccc23)NC(=O)[C@H](Cc2ccc(O)cc2)NC(=O)[C@H](CCC(=O)O)NC1=O)[C@@H](C)O [MP-013] (Ac-KK[Ahx]TSF[R8]EYWALL[S5]ENY-NH2; staple 7-14) | 5.06 | < 4.30 | -1.001% | 11.6% | < 4.30 |  |  |
| CC(=O)N[C@H](C(=O)N[C@@H](CO)C(=O)N[C@@H](Cc1ccccc1)C(=O)N[C@]1(C)CCCCCCC=CCCC[C@@](C)(C(=O)O)NC(=O)[C@H](CC(C)C)NC(=O)[C@H](CC(C)C)NC(=O)[C@H](C)NC(=O)[C@H](Cc2c[nH]c3ccccc23)NC(=O)[C@H](Cc2ccc(O)cc2)NC(=O)[C@H](CCC(=O)O)NC1=O)[C@@H](C)O [MP-162] | 4.44 | < 4.29 | 20.08% | 18.54% | 4.33 |  |  |
| CC(=O)N[C@H](C(=O)N[C@@H](CO)C(=O)N[C@@H](Cc1ccccc1)C(=O)N[C@]1(C)CCCCCCC=CCCC[C@@](C)(C(=O)N[C@@H](CCC(=O)O)C(=O)N[C@@H](CC(N)=O)C(=O)N[C@@H](Cc2ccc(O)cc2)C(N)=O)NC(=O)[C@H](CC(C)C)NC(=O)[C@H](CC(C)C)NC(=O)[C@H](C)NC(=O)[C@H](Cc2c[nH]c3ccccc23)NC(=O)[C@H](Cc2ccc(O)cc2)NC(=O)[C@H](CCC(=O)O)NC1=O)[C@@H](C)O [MP-1170] | 4.78 | < 4.30 | 6.762% | 61.75% | 4.43 |  |  |
| CC(=O)N[C@H](C(=O)N[C@@H](CO)C(=O)N[C@@H](Cc1ccccc1)C(=O)N[C@]1(C)CCCC=CCCC[C@](C)(C(=O)N[C@@H](CC(C)C)C(=O)N[C@@H](CC(C)C)C(=O)N2CCC[C@H]2C(=O)N[C@@H](CCC(N)=O)C(=O)N[C@@H](CC(N)=O)C(=O)N[C@@H](Cc2ccccc2)C(N)=O)NC(=O)[C@H](Cc2c[nH]c3ccccc23)NC(=O)[C@H](Cc2ccc(O)cc2)NC(=O)[C@H](CCC(=O)O)NC1=O)[C@@H](C)O [MP-1173] (Ac-TSF[R5]EYW[R5]LLPQNF-NH2; staple 4-8) | 4.90 | < 4.30 | 16.65% | 47.5% | 4.55 |  |  |
| CC(=O)N[C@@H](CCCCN)C(=O)N[C@@H](CCCCN)C(=O)NCCCCCC(=O)N[C@H](C(=O)N[C@@H](CO)C(=O)N[C@@H](Cc1ccccc1)C(=O)N[C@]1(C)CCCCCCC=CCCC[C@@](C)(C(=O)N[C@@H](CCC(=O)O)C(=O)N[C@@H](CC(N)=O)C(=O)N[C@@H](Cc2ccccc2)C(N)=O)NC(=O)[C@H](CC(C)C)NC(=O)[C@H](CC(C)C)NC(=O)[C@H](C)NC(=O)[C@H](Cc2c[nH]c3ccccc23)NC(=O)[C@H](Cc2ccc(O)cc2)NC(=O)[C@H](CCC(=O)O)NC1=O)[C@@H](C)O [MP-5363] (Ac-KK[Ahx]TSF[R8]EYWALL[S5]ENF-NH2; staple 7-14) | 5.47 |  |  | 48.32% | < 4.30 | 5.49 | 4.17% |
| CC(=O)N[C@H](C(=O)N[C@@H](CO)C(=O)N[C@@H](Cc1ccccc1)C(=O)N[C@]1(C)CCCCCCC=CCCC[C@@](C)(C(N)=O)NC(=O)[C@H](CC(C)(C)C)NC(=O)[C@H](CC(C)C)NC(=O)[C@H](C)NC(=O)[C@H](Cc2c[nH]c3ccccc23)NC(=O)[C@H](Cc2ccc(O)cc2)NC(=O)[C@H](CCC(=O)O)NC1=O)[C@@H](C)O [MP-149] (Ac-TSF[R8]EYWAL[tBuAla][S5]-NH2; staple 4-11) | 4.90 | 4.55 | 42.59% | 20.68% | < 4.30 |  |  |
| CC(=O)N[C@@H](CCCCN)C(=O)N[C@@H](CCCCN)C(=O)N[C@H](C(=O)N[C@@H](CO)C(=O)N[C@@H](Cc1ccccc1)C(=O)N[C@]1(C)CCCCCCC=CCCC[C@@](C)(C(=O)N[C@@H](CCC(=O)O)C(N)=O)NC(=O)[C@H](CC(C)(C)C)NC(=O)[C@H](CC(C)C)NC(=O)[C@H](C)NC(=O)[C@H](Cc2c[nH]c3ccccc23)NC(=O)[C@H](Cc2ccc(O)cc2)NC(=O)[C@H](CCC(=O)O)NC1=O)[C@@H](C)O [MP-1159] (Ac-KKTSF[R8]EYWAL[tBuAla][S5]E-NH2; staple 6-13) | 5.29 | < 4.30 | -1.606% | 44.44% | 4.31 |  |  |
| CC(=O)N[C@H](C(=O)N[C@@H](CO)C(=O)N[C@@H](Cc1ccccc1)C(=O)N[C@@H]1CCCCCCC=CCCC[C@@H](C(N)=O)NC(=O)[C@H](CC(C)(C)C)NC(=O)[C@H](CC(C)C)NC(=O)[C@H](C)NC(=O)[C@H](Cc2c[nH]c3ccccc23)NC(=O)[C@H](Cc2ccc(O)cc2)NC(=O)[C@H](CCC(=O)O)NC1=O)[C@@H](C)O [MP-150] (Ac-TSF[dR8(desαMe)]EYWAL[tBuAla][Nle(6-ylidene)]-NH2; staple 4-11) | 4.65 | < 4.30 | -0.7157% | -3.542% | < 4.30 |  |  |
| CC(=O)N[C@@H](CCCNC(=N)N)C(=O)N[C@@H](CCCNC(=N)N)C(=O)N[C@@H](CCCNC(=N)N)C(=O)NCCCCCC(=O)N[C@H](C(=O)N[C@@H](CO)C(=O)N[C@@H](Cc1ccccc1)C(=O)N[C@]1(C)CCCCCCC=CCCC[C@@](C)(C(=O)N[C@@H](CCC(=O)O)C(=O)N[C@@H](CC(N)=O)C(=O)N[C@@H](Cc2ccccc2)C(N)=O)NC(=O)[C@H](CC(C)C)NC(=O)[C@H](CC(C)C)NC(=O)[C@H](C)NC(=O)[C@H](Cc2c[nH]c3ccccc23)NC(=O)[C@H](Cc2ccc(O)cc2)NC(=O)[C@H](CCC(=O)O)NC1=O)[C@@H](C)O [MP-2009] (Ac-RRR[Ahx]TSF[R8]EYWALL[S5]ENF-NH2; staple 8-15) | 5.01 | < 4.30 | 32.46% | 68.36% | 4.78 |  |  |
| CC(=O)N[C@H](C(=O)N[C@@H](CO)C(=O)N[C@@H](Cc1ccccc1)C(=O)NC(C)(C)C(=O)N[C@@H](CCC(=O)O)C(=O)N[C@@H](Cc1ccc(O)cc1)C(=O)N[C@@H](Cc1c[nH]c2ccccc12)C(=O)N[C@@H](C)C(=O)N[C@@H](CC(C)C)C(=O)N[C@@H](CC(C)(C)C)C(=O)NC(C)(C)C(N)=O)[C@@H](C)O [MP-155] (Ac-TSF[Aib]EYWAL[tBuAla][Aib]-NH2) | 4.91 | < 4.30 | -0.2131% | -0.6205% | < 4.30 |  |  |
| CC(=O)N[C@@H](CCCCN)C(=O)NCCCCCC(=O)N[C@H](C(=O)N[C@@H](CO)C(=O)N[C@@H](Cc1ccccc1)C(=O)N[C@]1(C)CCCCCCC=CCCC[C@@](C)(C(=O)N[C@@H](CCC(=O)O)C(=O)N[C@@H](CC(N)=O)C(=O)N[C@@H](Cc2ccccc2)C(N)=O)NC(=O)[C@H](CC(C)C)NC(=O)[C@H](CC(C)C)NC(=O)[C@H](C)NC(=O)[C@H](Cc2c[nH]c3ccccc23)NC(=O)[C@H](Cc2ccc(O)cc2)NC(=O)[C@H](CCC(=O)O)NC1=O)[C@@H](C)O [MP-5365] | 5.45 |  |  | 4.41% | < 4.30 | 5.66 | 1.46% |
